Results as given in ChEMBL document CHEMBL1201862, “PubChem BioAssay data set” (2004).
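Following 48 hours of exposure in 96-well plates, responses at five concentrations were used to interpolate endpoints linearly. At the GI50, growth is halved.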 The source made the active and inactive calls. Rule as the data show it: active = GI50 up to about 1.1 µM and inactive = higher.

How the values were obtained:
Test in all cases: NCI anticancer screen, dose series, 48 h
OVCAR-4 = test system: OVCAR-4
OVCAR-3 = test system: OVCAR-3
SNB-78 = test system: SNB-78
SF-539 = test system: SF-539
HCT-116 = test system: HCT-116
LOX IMVI = test system: LOX IMVI
CAKI-1 = test system: CAKI-1
M14 = test system: M14
A498 = test system: A498
NCI-H522 = test system: NCI-H522
SK-MEL-28 = test system: SK-MEL-28
DMS-273 = test system: DMS-273
HCT-15 = test system: HCT-15
KM12 = test system: KM12
RXF 393 = test system: RXF 393
K562 = test system: K562
786-0 = test system: 786-0
SK-MEL-5 = test system: SK-MEL-5
SK-MEL-2 = test system: SK-MEL-2
A549 = test system: A549
U-251 = test system: U-251
UACC-62 = test system: UACC-62
XF498 = test system: XF498
SK-OV-3 = test system: SK-OV-3
IGROV-1 = test system: IGROV-1
RPMI-8226 = test system: RPMI-8226
UACC-257 = test system: UACC-257
OVCAR-5 = test system: OVCAR-5
COLO 205 = test system: COLO 205
SF-268 = test system: SF-268
SW-620 = test system: SW-620
UO-31 = test system: UO-31
SNB-75 = test system: SNB-75
M19-MEL = test system: M19-MEL
SN12C = test system: SN12C
HOP-92 = test system: HOP-92
RXF 631 = test system: RXF 631
HOP-18 = test system: HOP-18
NCI-H23 = test system: NCI-H23
EKVX = test system: EKVX
MOLT-4 = test system: MOLT-4
NCI-H460 = test system: NCI-H460
HL-60 = test system: HL-60
LXFL 529 = test system: LXFL 529
DMS-114 = test system: DMS-114
ACHN = test system: ACHN
SNB-19 = test system: SNB-19
DLD-1 = test system: DLD-1
OVCAR-8 = test system: OVCAR-8
Malme-3M = test system: Malme-3M
HT-29 = test system: HT-29
SF-295 = test system: SF-295
HOP-62 = test system: HOP-62
SR = test system: SR
KM-20L2 = test system: KM-20L2
TK-10 = test system: TK-10
NCI-H226 = test system: NCI-H226
HCC 2998 = test system: HCC 2998

Measured: GI50

O=C1NC2C(O)CCCCC2C12CCCCC2 (stereo not drawn)
inactive: OVCAR-4 > 100 µM | OVCAR-3 > 100 µM | SNB-78 > 100 µM | SF-539 > 100 µM | HCT-116 > 100 µM | LOX IMVI > 100 µM | CAKI-1 > 100 µM | M14 > 100 µM | A498 > 100 µM | NCI-H522 > 100 µM | SK-MEL-28 > 100 µM | DMS-273 > 100 µM | KM12 > 100 µM | RXF 393 > 100 µM | K562 > 100 µM | 786-0 > 100 µM | SK-MEL-5 > 100 µM | SK-MEL-2 > 100 µM | A549 > 100 µM | U-251 > 100 µM | UACC-62 > 100 µM | XF498 > 100 µM | SK-OV-3 > 100 µM | IGROV-1 > 100 µM | RPMI-8226 > 100 µM | UACC-257 > 100 µM | OVCAR-5 > 100 µM | COLO 205 > 100 µM | SF-268 > 100 µM | SW-620 > 100 µM | UO-31 > 100 µM | SNB-75 > 100 µM | M19-MEL > 100 µM | SN12C > 100 µM | HOP-92 > 100 µM | RXF 631 > 100 µM | HOP-18 > 100 µM | NCI-H23 > 100 µM | EKVX > 100 µM | MOLT-4 > 100 µM | NCI-H460 > 100 µM | HL-60 > 100 µM | LXFL 529 > 100 µM | DMS-114 > 100 µM | ACHN > 100 µM | SNB-19 > 100 µM | DLD-1 > 100 µM | OVCAR-8 > 100 µM | Malme-3M > 100 µM | HT-29 > 100 µM | SF-295 > 100 µM | HOP-62 > 100 µM
> 100 µM: HCT-15

CCOC(=O)C1=C(NC(C)(C)C)OCC1=O
inactive: OVCAR-4 > 100 µM | OVCAR-3 > 100 µM | SNB-78 > 100 µM | SF-539 > 100 µM | HCT-116 > 100 µM | LOX IMVI > 100 µM | CAKI-1 > 100 µM | M14 > 100 µM | NCI-H522 > 100 µM | SR > 100 µM | SK-MEL-28 > 100 µM | KM12 > 100 µM | K562 > 100 µM | 786-0 > 100 µM | SK-MEL-2 > 100 µM | KM-20L2 > 100 µM | A549 > 100 µM | U-251 > 100 µM | TK-10 > 100 µM | UACC-62 > 100 µM | XF498 > 100 µM | SK-OV-3 > 100 µM | IGROV-1 > 100 µM | RPMI-8226 > 100 µM | UACC-257 > 100 µM | OVCAR-5 > 100 µM | COLO 205 > 100 µM | SF-268 > 100 µM | SW-620 > 100 µM | UO-31 > 100 µM | SNB-75 > 100 µM | NCI-H226 > 100 µM | SN12C > 100 µM | HOP-92 > 100 µM | RXF 631 > 100 µM | NCI-H23 92.7 µM | MOLT-4 > 100 µM | NCI-H460 > 100 µM | HL-60 > 100 µM | LXFL 529 > 100 µM | ACHN > 100 µM | SNB-19 > 100 µM | DLD-1 > 100 µM | OVCAR-8 > 100 µM | Malme-3M > 100 µM | HT-29 > 100 µM | HCC 2998 > 100 µM | SF-295 > 100 µM | HOP-62 > 100 µM
> 100 µM: HCT-15
